In patent US20110105509A1 (Wyeth, LLC, priority 2009, published 2011) one finds IC50 data, which are given here for 30 compounds.

By pIC50 is commonly meant −log10 of the IC50, conventionally taken in molar units. Low readings indicate a large IC50, high ones a small IC50.

pIC50: −log10 of the molar value.

For the test, the target named is T1, CRTH2 (Homo sapiens, UniProt Q9Y5Y4).
T1 construct: expressed in transfected cells; host or cells: CHO cells
T1 sequence (Q9Y5Y4 1-395): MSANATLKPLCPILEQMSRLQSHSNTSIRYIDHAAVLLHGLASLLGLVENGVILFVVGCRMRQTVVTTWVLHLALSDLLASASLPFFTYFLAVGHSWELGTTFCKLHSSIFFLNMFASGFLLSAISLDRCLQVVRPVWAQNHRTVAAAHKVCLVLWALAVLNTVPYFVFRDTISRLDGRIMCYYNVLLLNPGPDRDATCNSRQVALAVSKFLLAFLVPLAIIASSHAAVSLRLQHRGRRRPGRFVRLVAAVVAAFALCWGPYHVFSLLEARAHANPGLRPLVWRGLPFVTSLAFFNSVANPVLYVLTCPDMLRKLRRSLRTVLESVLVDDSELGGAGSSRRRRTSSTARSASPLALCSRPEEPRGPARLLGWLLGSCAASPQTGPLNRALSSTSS
As to the kind of experiment: FRET based competitive immunoassay (cAMP) in CRTH2 expressing CHO cells. The class given is cell-based. The note with it: CRTH2 expressing CHO cells incubated with forskolin and PGD2; Eu3+ cryptate-labeled anti-cAMP and d2-labeled cAMP. The method, then: FRET Assay: To evaluate potency compounds were tested in a FRET based competitive immunoassay in which CRTH2 expressing CHO cells were incubated in the presence of forskolin and PGD2 along with Eu3+ cryptate-labeled anti-cAMP and d2-labeled cAMP.
Regarding `Cc1c(Cc2nn(Cc3ccccc3)c(=O)c3ccccc23)c2cc(Cl)ccc2n1CC(=O)O` [Example 84, 2-(3-((3-Benzyl-4-oxo-3,4-dihydrophthalazin-1-yl)methyl)-5-chloro-2-methyl-1H-indol-1-yl)acetic acid], the pIC50 was 7.55.
Under `Cc1c(Cc2cn(Cc3ccccc3)c(=O)c3ccccc23)c2cc(F)ccc2n1CC(=O)O` [Example 85, 2-(3-((2-benzyl-1-oxo-1,2-dihydroisoquinolin-4-yl)methyl)-5-fluoro-2-methyl-1H-indol-1-yl)acetic acid] stands 7.21; under `Cc1c(Cc2cn(Cc3ccccc3)c(=O)c3ccccc23)c2ccccc2n1CC(=O)O` [Example 86, 2-(3-((2-benzyl-1-oxo-1,2-dihydroisoquinolin-4-yl)methyl)-2-methyl-1H-indol-1-yl)acetic acid], 6.71; under `Cc1c(Cc2cn(Cc3ccccc3)c(=O)c3ccccc23)c2cc(Cl)ccc2n1CC(=O)O` [Example 87, 2-(3-((2-benzyl-1-oxo-1,2-dihydroisoquinolin-4-yl)methyl)-5-chloro-2-methyl-1H-indol-1-yl)acetic acid], 6.68.
`Cc1c(-c2cn(Cc3ccccc3)c(=O)c3c2CCCC3)c2cc(F)ccc2n1CC(=O)O` [Example 88, 2-(3-(2-benzyl-1-oxo-1,2,5,6,7,8-hexahydroisoquinolin-4-yl)-5-fluoro-2-methyl-1H-indol-1-yl)acetic acid] gave a pIC50 of 6.71.
As for `Cc1c(-c2cn(CCCC(F)(F)F)c(=O)c3c2CCCC3)c2cc(F)ccc2n1CC(=O)O` [Example 89, 2-(5-fluoro-2-methyl-3-(1-oxo-2-(4,4,4-trifluorobutyl)-1,2,5,6,7,8-hexahydro-isoquinolin-4-yl)-1H-indol-1-yl)acetic acid], the figure is 6.91.
Under `Cc1c(-c2cn(CC(F)(F)F)c(=O)c3c2CCCC3)c2cc(F)ccc2n1CC(=O)O` [Example 90, 2-(5-fluoro-2-methyl-3-(1-oxo-2-(2,2,2-trifluoroethyl)-1,2,5,6,7,8-hexahydro-isoquinolin-4-yl)-1H-indol-1-yl)acetic acid] stands under 6.00; under `Cc1c(-c2cn(C(C)C)c(=O)c3c2CCCC3)c2cc(F)ccc2n1CC(=O)O` [Example 91, 2-(5-fluoro-3-(2-isopropyl-1-oxo-1,2,5,6,7,8-hexahydroisoquinolin-4-yl)-2-methyl-1H-indol-1-yl)acetic acid], 6.97; under `Cc1c(-c2cn(CC(C)(C)O)c(=O)c3c2CCCC3)c2cc(F)ccc2n1CC(=O)O` [Example 92, 2-(5-fluoro-3-(2-(2-hydroxy-2-methylpropyl)-1-oxo-1,2,5,6,7,8-hexahydro-iso-quinolin-4-yl)-2-methyl-1H-indol-1-yl)acetic acid], under 6.00.
Regarding `Cc1c(-c2cn(CCc3ccccc3)c(=O)c3c2CCCC3)c2cc(F)ccc2n1CC(=O)O` [Example 93, 2-(5-fluoro-2-methyl-3-(1-oxo-2-phenethyl-1,2,5,6,7,8-hexahydro-iso-quinolin-4-yl)-1H-indol-1-yl)acetic acid], the pIC50 is 7.68.
In turn, `Cc1c(-c2cn(Cc3ccc(F)cc3F)c(=O)c3c2CCCC3)c2cc(F)ccc2n1CC(=O)O` [Example 94, 2-(3-(2-(2,4-difluorobenzyl)-1-oxo-1,2,5,6,7,8-hexahydroisoquinolin-4-yl)-5-fluoro-2-methyl-1H-indol-1-yl)acetic acid] gave a pIC50 of 6.92.
`Cc1c(-c2cn(Cc3ccccn3)c(=O)c3ccccc23)c2cc(F)ccc2n1CC(=O)O` [Example 95, 2-(5-fluoro-2-methyl-3-(1-oxo-2-(pyridin-2-ylmethyl)-1,2-dihydro-isoquinolin-4-yl)-1H-indol-1-yl)acetic acid]: the pIC50 is 8.05.
As for `Cc1c(-c2cn(CCC(C(F)(F)F)C(F)(F)F)c(=O)c3ccccc23)c2cc(F)ccc2n1CC(=O)O` [Example 96, 2-(5-fluoro-2-methyl-3-(1-oxo-2-(4,4,4-trifluoro-3-(trifluoromethyl)butyl)-1,2-dihydroisoquinolin-4-yl)-1H-indol-1-yl)acetic acid], the figure is 6.53.
In the case of `Cc1c(-c2nn(Cc3cccc(F)c3F)c(=O)c3ccccc23)c2cc(Cl)ccc2n1CC(=O)O` [Example 97, 2-(5-chloro-3-(3-(2,3-difluorobenzyl)-4-oxo-3,4-dihydrophthalazin-1-yl)-2-methyl-1H-indol-1-yl)acetic acid], the pIC50 is 8.15.
As for `Cc1c(-c2nn(Cc3ccccc3F)c(=O)c3ccccc23)c2cc(Cl)ccc2n1CC(=O)O` [Example 98, 2-(5-Chloro-3-(3-(2-fluorobenzyl)-4-oxo-3,4-dihydrophthalazin-1-yl)-2-methyl-1H-indol-1-yl)acetic acid], the pIC50 was 7.77.
With `Cc1c(-c2nn(Cc3nc4cc(F)ccc4s3)c(=O)c3ccccc23)c2cc(Cl)ccc2n1CC(=O)O` [Example 99, 2-(5-chloro-3-(3-((5-fluorobenzo[d]thiazol-2-yl)methyl)-4-oxo-3,4-dihydrophthalazin-1-yl)-2-methyl-1H-indol-1-yl)acetic acid], the pIC50 was 8.00.
As for `Cc1c(-c2nn(Cc3nc4cc(C(F)(F)F)ccc4s3)c(=O)c3ccccc23)c2cc(Cl)ccc2n1CC(=O)O` [Example 100, 2-(5-chloro-2-methyl-3-(4-oxo-3-((5-(trifluoromethyl)benzo[d]thiazol-2-yl)-methyl)-3,4-dihydrophthalazin-1-yl)-1H-indol-1-yl)acetic acid], the figure is 7.09.
Under `Cc1c(-c2nn(Cc3c(F)cccc3F)c(=O)c3ccccc23)c2cc(Cl)ccc2n1CC(=O)O` [Example 101, 2-(5-chloro-3-(3-(2,6-difluorobenzyl)-4-oxo-3,4-dihydrophthalazin-1-yl)-2-methyl-1H-indol-1-yl)acetic acid] stands 8.00; under `Cc1c(-c2nn(Cc3ccc(OC(F)(F)F)cc3)c(=O)c3ccccc23)c2cc(Cl)ccc2n1CC(=O)O` [Example 102, 2-(5-chloro-2-methyl-3-(4-oxo-3-(4-(trifluoromethoxy)benzyl)-3,4-dihydrophthalazin-1-yl)-1H-indol-1-yl)acetic acid], 7.57; under `Cc1c(-c2nn(Cc3ccc4ccccc4n3)c(=O)c3ccccc23)c2cc(Cl)ccc2n1CC(=O)O` [Example 103, 2-(5-chloro-2-methyl-3-(4-oxo-3-(quinolin-2-ylmethyl)-3,4-dihydro-phthalazin-1-yl)-1H-indol-1-yl)acetic acid], 7.96.
Under `Cc1cc(Cn2nc(-c3c(C)n(CC(=O)O)c4ccc(Cl)cc34)c3ccccc3c2=O)c2ccccc2n1` [Example 104, 2-(5-chloro-2-methyl-3-(3-((2-methylquinolin-4-yl)methyl)-4-oxo-3,4-dihydro-phthalazin-1-yl)-1H-indol-1-yl)acetic acid] stands 8.00; under `Cc1c(-c2nn(C)c(=O)c3ccccc23)c2cc(Cl)ccc2n1CC(=O)O` [Example 105, 2-(5-chloro-2-methyl-3-(3-methyl-4-oxo-3,4-dihydrophthalazin-1-yl)-1H-indol-1-yl)-acetic acid], 6.92; under `CCn1nc(-c2c(C)n(CC(=O)O)c3ccc(Cl)cc23)c2ccccc2c1=O` [Example 106, 2-(5-Chloro-3-(3-ethyl-4-oxo-3,4-dihydrophthalazin-1-yl)-2-methyl-1H-indol-1-yl)acetic acid], 7.64.
Compound `Cc1c(-c2nn(CC3CC3)c(=O)c3ccccc23)c2cc(Cl)ccc2n1CC(=O)O` [Example 108, 2-(5-chloro-3-(3-(cyclopropylmethyl)-4-oxo-3,4-dihydrophthalazin-1-yl)-2-methyl-1H-indol-1-yl)acetic acid] had a pIC50 of 7.66. This pIC50 and that of the compound before are within 0.2 log units of each other.
Under `Cc1c(-c2nn(CC(F)(F)F)c(=O)c3ccccc23)c2cc(Cl)ccc2n1CC(=O)O` [Example 109, 2-(5-chloro-2-methyl-3-(4-oxo-3-(2,2,2-trifluoroethyl)-3,4-dihydro-phthalazin-1-yl)-1H-indol-1-yl)acetic acid] stands 7.38; under `Cc1c(-c2nn(Cc3nc4ccccc4s3)c(=O)c3ccccc23)c2cc(F)ccc2n1CC(=O)O` [Example 110, 2-(3-(3-(Benzo[d]thiazol-2-ylmethyl)-4-oxo-3,4-dihydrophthalazin-1-yl)-5-fluoro-2-methyl-1H-indol-1-yl)acetic acid], 8.15; under `Cc1c(-c2nn(Cc3ccc(F)cc3)c(=O)c3ccccc23)c2cc(F)ccc2n1CC(=O)O` [Example 111, 2-(5-fluoro-3-(3-(4-fluorobenzyl)-4-oxo-3,4-dihydrophthalazin-1-yl)-2-methyl-1H-indol-1-yl)acetic acid], under 7.70.
As for `Cc1c(-c2nn(Cc3cccc(F)c3F)c(=O)c3ccccc23)c2cc(F)ccc2n1CC(=O)O` [Example 112, 2-(3-(3-(2,3-difluorobenzyl)-4-oxo-3,4-dihydrophthalazin-1-yl)-5-fluoro-2-methyl-1H-indol-1-yl)acetic acid], the figure is 7.72.
As for `Cc1c(-c2nn(Cc3ccccc3F)c(=O)c3ccccc23)c2cc(F)ccc2n1CC(=O)O` [Example 113, 2-(5-fluoro-3-(3-(2-fluorobenzyl)-4-oxo-3,4-dihydrophthalazin-1-yl)-2-methyl-1H-indol-1-yl)acetic acid], the figure is 7.85.
`Cc1c(-c2nn(Cc3nc4cc(F)ccc4s3)c(=O)c3ccccc23)c2cc(F)ccc2n1CC(=O)O` [Example 114, 2-(5-fluoro-3-(3-((5-fluorobenzo[d]thiazol-2-yl)methyl)-4-oxo-3,4-dihydro-phthalazin-1-yl)-2-methyl-1H-indol-1-yl)acetic acid] gave a pIC50 of 7.89.
